# In PubChem BioAssay (NCI):
#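 Results reflect a 48-hour exposure of cells in 96-well plates to compound at five concentrations. Abbreviation: GI50, concentration required for 50% inhibition of growth. The concentration for full growth arrest is given as TGI.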
# How the values were obtained:
# Assay in all cases: inhibition of tumour cell growth, NCI panel, 48 h
# TK-10 renal = test system: TK-10 renal
# K-562 leukemia = test system: K-562 leukemia
# SN12C renal = test system: SN12C renal
# UO-31 renal = test system: UO-31 renal
# LOX IMVI melanoma = test system: LOX IMVI melanoma
# NCI-H460 lung = test system: NCI-H460 lung
# RPMI-8226 leukemia = test system: RPMI-8226 leukemia
# SK-MEL-5 melanoma = test system: SK-MEL-5 melanoma
# MALME-3M melanoma = test system: MALME-3M melanoma
# MDA-MB-435 = test system: MDA-MB-435
SMILES,TGI (TK-10 renal),TGI (K-562 leukemia),TGI (SN12C renal),TGI (UO-31 renal),TGI (LOX IMVI melanoma),TGI (NCI-H460 lung),TGI (RPMI-8226 leukemia),TGI (SK-MEL-5 melanoma),TGI (MALME-3M melanoma),TGI (MDA-MB-435),GI50 (TK-10 renal),GI50 (K-562 leukemia),GI50 (SN12C renal),GI50 (UO-31 renal),GI50 (LOX IMVI melanoma),GI50 (NCI-H460 lung),GI50 (MDA-MB-435),GI50 (SK-MEL-5 melanoma),GI50 (MALME-3M melanoma),GI50 (RPMI-8226 leukemia)
Brc1cc(C2OCCCO2)ccc1OCc1ccccc1,> 100 µM,> 100 µM,> 100 µM,> 100 µM,63.5 µM,> 100 µM,> 100 µM,71.4 µM,> 100 µM,,,,,,,,,,,
COc1ccc(NC(=O)CC(=O)N/N=C(\C)c2cc3ccccc3oc2=O)cc1,> 100 µM,> 100 µM,> 100 µM,> 100 µM,> 100 µM,> 100 µM,> 100 µM,> 100 µM,> 100 µM,,,,,,,,,,,
Cc1ccc(N2C(=O)/C(=C/c3ccc(N(CCC#N)CCC#N)cc3)N=C2COc2ccc(Cl)cc2Cl)cc1,> 100 µM,> 100 µM,> 100 µM,> 100 µM,> 100 µM,> 100 µM,> 100 µM,> 100 µM,> 100 µM,,,,,,,,,,,
CCCC(O)c1cn(-c2cccc(S(=O)(=O)O)c2)nn1 (configuration not stated),> 100 µM,> 100 µM,> 100 µM,> 100 µM,> 100 µM,> 100 µM,> 100 µM,> 100 µM,> 100 µM,,,,,,,,,,,
COc1ccc2c(c1O)[C@@]13CCCC=C1[C@@H](C2)[N+](C)(C)CC3,> 100 µM,> 100 µM,> 100 µM,> 100 µM,> 100 µM,> 100 µM,,> 100 µM,> 100 µM,> 100 µM,,,,,,,,,,
CCCCNS(=O)(=O)c1ccc(-c2ccc3c(c2)-c2ccc(S(=O)(=O)NCCCC)cc2S3(=O)=O)cc1,83.2 µM,> 100 µM,,> 100 µM,38 µM,> 100 µM,> 100 µM,28.6 µM,49.2 µM,,,,,,,,,,,
O=C1CC(c2cccc(Cl)c2)Oc2ccccc21 (configuration not stated),,6.4 µM,,27.6 µM,56.5 µM,42.1 µM,9.83 µM,37.6 µM,,38.1 µM,,,,,,,,,,
NC1=NC(SCc2ccccc2CCl)c2ncn(Cc3ccccc3CCl)c2N1 (configuration not stated),11.9 µM,10.2 µM,9.85 µM,3.08 µM,2.92 µM,6.69 µM,,3.25 µM,3.2 µM,3.28 µM,3.29 µM,2.35 µM,2.76 µM,1.51 µM,1.35 µM,2.53 µM,1.53 µM,1.71 µM,1.44 µM,
C=CCC12CC(=O)CCC1c1ccc(OC)cc1C2=O (configuration not stated),> 100 µM,> 100 µM,> 100 µM,> 100 µM,> 100 µM,> 100 µM,> 100 µM,> 100 µM,> 100 µM,,,,,,,,,,,
COC(=O)C(=O)C(C(=O)C(=O)Nc1ccccc1[N+](=O)[O-])c1nc2ccc([N+](=O)[O-])cc2[nH]c1=O (configuration not stated),,> 100 µM,> 100 µM,> 100 µM,> 100 µM,> 100 µM,> 100 µM,> 100 µM,> 100 µM,,,,,,,,,,,
Cc1ccccc1-n1c(=S)[nH]c2c(sc(=O)n2-c2ccccc2C)c1=O,,> 100 µM,> 100 µM,> 100 µM,,> 100 µM,> 100 µM,> 100 µM,> 100 µM,,,,,,,,,,,
O=C1OC(=O)C23CSCC12C1C=CC3O1 (configuration not stated),> 100 µM,> 100 µM,> 100 µM,> 100 µM,> 100 µM,> 100 µM,> 100 µM,> 100 µM,> 100 µM,,,,,,,,,,,
O=c1cc[nH]cc1-c1c[nH]ccc1=O,> 100 µM,> 100 µM,> 100 µM,> 100 µM,> 100 µM,> 100 µM,> 100 µM,> 100 µM,> 100 µM,,,,,,,,,,,
COc1ccc(-c2cc3ccccc3[nH]c2=O)cc1OC,> 100 µM,> 100 µM,> 100 µM,> 100 µM,> 100 µM,> 100 µM,> 100 µM,,> 100 µM,,,,,,,,,,,
O=C1CS/C(=N/S(=O)(=O)c2ccc(N3N=C4c5ccccc5CC4C3c3cccs3)cc2)N1C(=O)c1ccccc1 (configuration not stated),,,> 100 µM,> 100 µM,54 µM,> 100 µM,> 100 µM,69.6 µM,,> 100 µM,,,49.6 µM,> 100 µM,22.7 µM,> 100 µM,37.4 µM,22.7 µM,,34 µM
CCOC(=O)c1sc2c(C(=O)OCC)n3cc(C)cc(C)c3c2c1O,> 100 µM,> 100 µM,> 100 µM,> 100 µM,> 100 µM,> 100 µM,,> 100 µM,> 100 µM,,,,,,,,,,,

SMILES,TGI (TK-10 renal),TGI (K-562 leukemia),TGI (SN12C renal),TGI (UO-31 renal),TGI (LOX IMVI melanoma),TGI (NCI-H460 lung),TGI (RPMI-8226 leukemia),TGI (SK-MEL-5 melanoma),TGI (MALME-3M melanoma),TGI (MDA-MB-435),GI50 (TK-10 renal),GI50 (K-562 leukemia),GI50 (SN12C renal),GI50 (UO-31 renal),GI50 (LOX IMVI melanoma),GI50 (NCI-H460 lung),GI50 (MDA-MB-435),GI50 (SK-MEL-5 melanoma),GI50 (MALME-3M melanoma),GI50 (RPMI-8226 leukemia)
CCC1CCCCN1CC(C(C)=O)C(c1ccccc1)c1c(O)c2ccccc2oc1=O (configuration not stated),> 100 µM,> 100 µM,> 100 µM,> 100 µM,> 100 µM,> 100 µM,> 100 µM,> 100 µM,> 100 µM,,,,,,,,,,,
CC(=O)OCC1OC(n2c(=O)[nH]c(=O)c3n[nH]nc32)C(OC(C)=O)C(OC(C)=O)C1OC(C)=O (configuration not stated),> 100 µM,> 100 µM,> 100 µM,> 100 µM,> 100 µM,> 100 µM,> 100 µM,> 100 µM,> 100 µM,,,,,,,,,,,
O=c1c2ccccc2oc2ccccc12 (tested in a mixture with another compound),,> 100 µM,60.8 µM,> 100 µM,17 µM,25.9 µM,> 100 µM,7.61 µM,8.18 µM,,,,,,,,,,,
O=C1OCC2=C1C(c1cccc(C(F)(F)F)c1)c1cc3c(cc1N2CCO)OCCO3 (configuration not stated),> 33.3 µM,> 33.3 µM,> 33.3 µM,> 33.3 µM,> 33.3 µM,> 33.3 µM,> 33.3 µM,6.97 µM,> 33.3 µM,,> 33.3 µM,0.881 µM,2.21 µM,1.95 µM,1.66 µM,1.22 µM,,0.997 µM,2.86 µM,1.39 µM
O=C1C(Cl)=C(Cl)C(=O)N1c1ccc(Cl)c(Cl)c1Cl,> 100 µM,91.8 µM,> 100 µM,> 100 µM,> 100 µM,> 100 µM,> 100 µM,> 100 µM,> 100 µM,,,,,,,,,,,
O=C(O)c1c2c(cc3c(=O)c4ccccc4[nH]c13)CCCC2,> 100 µM,,> 100 µM,> 100 µM,> 100 µM,> 100 µM,> 100 µM,,> 100 µM,,,,,,,,,,,
CCCCCCCC(=O)[O-].CCCCCCCC(=O)[O-].N.N.N.N.[Co+3].[O-][Cl+3]([O-])([O-])[O-],> 100 µM,> 100 µM,> 100 µM,> 100 µM,,,> 100 µM,,> 100 µM,,57.1 µM,> 100 µM,> 100 µM,> 100 µM,,,,,> 100 µM,> 100 µM
CCCCCCC(=O)C/C(CCC(=O)N(Cc1ccccc1)Cc1ccccc1)=N\NC(N)=O,> 100 µM,> 100 µM,> 100 µM,> 100 µM,> 100 µM,> 100 µM,> 100 µM,> 100 µM,> 100 µM,,,,,,,,,,,
CN1CCC(c2c(O)cc(O)c3c(=O)cc(-c4ccccc4Cl)oc23)C(O)C1 (configuration not stated),> 100 µM,> 100 µM,> 100 µM,> 100 µM,,> 100 µM,0.0285 µM,0.107 µM,0.598 µM,,,0.297 µM,,,,,,,,
C1CSC[C@H]2COC[C@@H](CSCCS1)S2,> 100 µM,> 100 µM,> 100 µM,> 100 µM,> 100 µM,> 100 µM,,> 100 µM,,> 100 µM,,,,,,,,,,
COC(=O)/C(C#N)=C1\CCC(OC)N1C (configuration not stated),> 100 µM,> 100 µM,> 100 µM,> 100 µM,> 100 µM,> 100 µM,> 100 µM,> 100 µM,> 100 µM,,,,,,,,,,,
O=C1CC(C2(O)C(=O)Nc3ccc([N+](=O)[O-])cc32)c2ccccc21 (configuration not stated),> 100 µM,60.6 µM,80.5 µM,> 100 µM,33 µM,29.9 µM,57.5 µM,75.6 µM,> 100 µM,,,,,,,,,,,
COc1cc2c(cc1OC)C(C(CBr)CBr)N(C1CCCC1)CC2 (configuration not stated),> 100 µM,> 100 µM,,> 100 µM,> 100 µM,> 100 µM,> 100 µM,> 100 µM,> 100 µM,,,,,,,,,,,
CC12OC(C(=O)C13CC3)C1C(=O)c3c(O)ccc(O)c3C(=O)C12 (configuration not stated),35.2 µM,34.6 µM,,55.6 µM,,> 100 µM,,,30.5 µM,36.5 µM,15.6 µM,13.8 µM,,22.8 µM,,31.5 µM,18.4 µM,,13.7 µM,
O=C(c1ccccc1)c1nnn(Cc2ccccc2Cn2nnc(C(=O)c3ccccc3)c2C(=O)c2ccccc2)c1C(=O)c1ccccc1,> 100 µM,> 100 µM,> 100 µM,> 100 µM,> 100 µM,> 100 µM,> 100 µM,> 100 µM,> 100 µM,,,,,,,,,,,
CC(C)N(C(=O)C12C3C4C5(C(=O)O)C(C1C35I)C42C(=O)O)C(C)C (configuration not stated),> 100 µM,> 100 µM,> 100 µM,> 100 µM,,> 100 µM,,> 100 µM,> 100 µM,,,,,,,,,,,
